Measured values from US20210246159A1, “NOVEL FORM OF BARDOXOLONE METHYL” (Johnson Matthey Public Limited Company, priority 2020, published 2021).

Test: Storage stability of the crystalline form at 30° C. / 65% RH in a capped vial
Assay type: physicochemical
Source text: The crystalline formic acid solvate of bardoxolone methyl; more particularly, Form A, can be dried by any conventional methods known to one of ordinary skill in the art. In one embodiment, it is desirable to avoid extensive drying of the crystalline formic acid solvate of bardoxolone methyl; more particularly, Form A, to avoid the potential for desolvation. In one embodiment, it is desirable to store the crystalline formic acid solvate of bardoxolone methyl; more particularly, Form A, away from high heat and humidity. Form A remains stable at 30° C. at 65% RH for at least 5 days in a capped vial.

time Form A remains stable: at least 5 days
Compound: COC(=O)[C@]12CCC(C)(C)C[C@H]1[C@H]1C(=O)C=C3[C@@]4(C)C=C(C#N)C(=O)C(C)(C)[C@@H]4CC[C@@]3(C)[C@]1(C)CC2 [Form A, di-formic acid solvate of bardoxolone methyl]
